Active and inactive are the calls of the source. Some results are limits rather than exact numbers.

The subject of one series is Listeria monocytogenes. As to the kind of experiment: Growth inhibition of Listeria monocytogenes WSLC 1001 incubated for 24 hrs under aerobic condition by microdilution method. The class given is organism-based. The settings on record: in vitro. (In general: Broth dilution looks for growth in wells or tubes with falling amounts of substance.)
Take `O=C1N[C@@H](Cc2ccccc2)C(=O)N[C@H]1Cc1ccccc1`: the MIC is greater than 192 µg/mL.
Take `O=C1N[C@H](Cc2ccccc2)C(=O)N[C@H]1Cc1ccccc1`: the MIC was greater than 192 µg/mL.
Still for that read-out and setting: as for `O=C1N[C@H](Cc2ccccc2)C(=O)N[C@@H]1Cc1ccccc1`, the figure is greater than 192 µg/mL.
In turn, `O=C1N[C@H](Cc2ccc(OCc3ccccc3)cc2)C(=O)N[C@H]1Cc1ccccc1` displayed an MIC greater than 192 µg/mL.

The next series has as its system Porphyromonas gingivalis. Kind of series: Antibiofilm activity against Porphyromonas gingivalis ATCC 33277 assessed as inhibition of biofilm formation up to 96 ug/mL after 24 hrs by crystal violet staining based assay.
Conditions: not given
The series is classed as functional, organism-based.
On to `O=C1N[C@@H](Cc2ccccc2)C(=O)N[C@H]1Cc1ccccc1`, for which the inhibition result is “inactive”.
Still for that read-out and setting: for `O=C1N[C@H](Cc2ccccc2)C(=O)N[C@H]1Cc1ccccc1` the value was “inactive”.
For `O=C1N[C@H](Cc2ccccc2)C(=O)N[C@@H]1Cc1ccccc1`, the inhibition result was “inactive”.
As to `O=C1N[C@H](Cc2ccc(OCc3ccccc3)cc2)C(=O)N[C@H]1Cc1ccccc1`, the inhibition result is “inactive”.
For the compound `CC(C)[C@@H]1NC(=O)[C@H](Cc2ccc(OCc3ccccc3)cc2)NC1=O`, the inhibition result is “inactive”.
On the same count and under the same terms, for `CC(C)C[C@@H]1NC(=O)[C@@H](C(C)C)NC1=O` the value was “inactive”.

The subject of the next series is Pseudomonas aeruginosa. As to the kind of experiment: Growth inhibition of Pseudomonas aeruginosa ATCC 10145 incubated for 24 hrs under aerobic condition by microdilution method. The series is classed as organism-based.
Conditions: not given
On to `O=C1N[C@@H](Cc2ccccc2)C(=O)N[C@H]1Cc1ccccc1`, for which the MIC is greater than 192 µg/mL.
Same read-out and setting: as for `O=C1N[C@H](Cc2ccccc2)C(=O)N[C@H]1Cc1ccccc1`, the figure is greater than 192 µg/mL; as for `O=C1N[C@H](Cc2ccccc2)C(=O)N[C@@H]1Cc1ccccc1`, greater than 192 µg/mL; as for `O=C1N[C@H](Cc2ccc(OCc3ccccc3)cc2)C(=O)N[C@H]1Cc1ccccc1`, greater than 192 µg/mL.

Test system in a further series: not listed separately
As to the kind of experiment: Solubility of the compound in water. The settings on record: buffer. The series is classed as physicochemical.
`O=C1N[C@H](Cc2ccc(OCc3ccccc3)cc2)C(=O)N[C@H]1Cc1ccccc1`: the solubility result is reported as “Insoluble”.

The test system of another series is Streptococcus mutans. As to the kind of experiment: Inhibition of planktonic growth of Streptococcus mutans ATCC 25175 up to 96 ug/mL after 24 hrs relative to control.
Conditions: not given
The series is classed as organism-based.
Turning to `O=C1N[C@@H](Cc2ccccc2)C(=O)N[C@H]1Cc1ccccc1`, the “growth inhibition (GI)” value is given as “Non-Toxic”.
Consider `O=C1N[C@H](Cc2ccccc2)C(=O)N[C@H]1Cc1ccccc1`, for which the “growth inhibition (GI)” value is on record as “Non-Toxic”.
For `O=C1N[C@H](Cc2ccccc2)C(=O)N[C@@H]1Cc1ccccc1`, the “growth inhibition (GI)” value is “Non-Toxic”.
Take `O=C1N[C@H](Cc2ccc(OCc3ccccc3)cc2)C(=O)N[C@H]1Cc1ccccc1`: the “growth inhibition (GI)” value is “Non-Toxic”.
As for `CC(C)[C@@H]1NC(=O)[C@H](Cc2ccc(OCc3ccccc3)cc2)NC1=O`, the “growth inhibition (GI)” value is “Non-Toxic”.
In the case of `CC(C)C[C@@H]1NC(=O)[C@@H](C(C)C)NC1=O`, the “growth inhibition (GI)” value is “Non-Toxic”.

In the next series the test system is Limosilactobacillus fermentum. Kind of series: Antibiofilm activity against Lactobacillus fermentum LacB1 assessed as inhibition of biofilm formation up to 96 ug/mL after 24 hrs by crystal violet staining based assay. The series is classed as functional, organism-based.
Conditions: not given
As for `O=C1N[C@@H](Cc2ccccc2)C(=O)N[C@H]1Cc1ccccc1`, the inhibition result was “inactive”.
Same read-out and setting: for `O=C1N[C@H](Cc2ccccc2)C(=O)N[C@H]1Cc1ccccc1` the value was “inactive”; for `O=C1N[C@H](Cc2ccccc2)C(=O)N[C@@H]1Cc1ccccc1`, “inactive”; for `O=C1N[C@H](Cc2ccc(OCc3ccccc3)cc2)C(=O)N[C@H]1Cc1ccccc1`, “inactive”.

For the next series, the system named is Escherichia coli. As to the kind of experiment: Growth inhibition of Escherichia coli ATCC 15939 incubated for 24 hrs under aerobic condition by microdilution method. The series is classed as organism-based.
Conditions: not given
For the compound `O=C1N[C@@H](Cc2ccccc2)C(=O)N[C@H]1Cc1ccccc1`, the MIC is greater than 192 µg/mL.
Take `O=C1N[C@H](Cc2ccccc2)C(=O)N[C@H]1Cc1ccccc1`: the MIC is greater than 192 µg/mL.
For the compound `O=C1N[C@H](Cc2ccccc2)C(=O)N[C@@H]1Cc1ccccc1`, the MIC was greater than 192 µg/mL.
On the same count and under the same terms, as for `O=C1N[C@H](Cc2ccc(OCc3ccccc3)cc2)C(=O)N[C@H]1Cc1ccccc1`, the figure is greater than 192 µg/mL.

Another series deals with Streptococcus mutans. As to the kind of experiment: Antibiofilm activity against Streptococcus mutans ATCC 25175 assessed as inhibition of biofilm formation up to 96 ug/mL after 24 hrs by crystal violet staining-based assay. The series is classed as functional, organism-based.
Conditions: not given
With `O=C1N[C@@H](Cc2ccccc2)C(=O)N[C@H]1Cc1ccccc1`, the inhibition result is “inactive”.
Turning to `O=C1N[C@H](Cc2ccccc2)C(=O)N[C@H]1Cc1ccccc1`, the inhibition entry is “inactive”.
On to `O=C1N[C@H](Cc2ccccc2)C(=O)N[C@@H]1Cc1ccccc1`, for which the inhibition result was “inactive”.
Still for that read-out and setting: for `O=C1N[C@H](Cc2ccc(OCc3ccccc3)cc2)C(=O)N[C@H]1Cc1ccccc1` the value was “inactive”.
Still for that read-out and setting: as for `CC(C)[C@@H]1NC(=O)[C@H](Cc2ccc(OCc3ccccc3)cc2)NC1=O`, the entry is “inactive”; as for `CC(C)C[C@@H]1NC(=O)[C@@H](C(C)C)NC1=O`, “inactive”.

The subject of another series is Fusobacterium nucleatum. As to the kind of experiment: Antibiofilm activity against Fusobacterium nucleatum ATCC 25586 assessed as inhibition of biofilm formation up to 96 ug/mL after 24 hrs by crystal violet staining based assay. The series is classed as functional, organism-based.
Conditions: not given
As to `O=C1N[C@@H](Cc2ccccc2)C(=O)N[C@H]1Cc1ccccc1`, the inhibition entry is “inactive”.
As for `O=C1N[C@H](Cc2ccccc2)C(=O)N[C@H]1Cc1ccccc1`, the inhibition result is “inactive”.
On to `O=C1N[C@H](Cc2ccccc2)C(=O)N[C@@H]1Cc1ccccc1`, for which the inhibition entry was “inactive”.
For `O=C1N[C@H](Cc2ccc(OCc3ccccc3)cc2)C(=O)N[C@H]1Cc1ccccc1`, the inhibition entry was “inactive”.
Still for that read-out and setting: as for `CC(C)[C@@H]1NC(=O)[C@H](Cc2ccc(OCc3ccccc3)cc2)NC1=O`, the entry is “inactive”; as for `CC(C)C[C@@H]1NC(=O)[C@@H](C(C)C)NC1=O`, “inactive”.

In the next series the test system is Staphylococcus aureus. As to the kind of experiment: Growth inhibition of Staphylococcus aureus ATCC 6538 incubated for 24 hrs under aerobic condition by microdilution method. The series is classed as organism-based. The settings on record: in vitro.
As to `O=C1N[C@@H](Cc2ccccc2)C(=O)N[C@H]1Cc1ccccc1`, the MIC was greater than 192 µg/mL.
The compound `O=C1N[C@H](Cc2ccccc2)C(=O)N[C@H]1Cc1ccccc1` showed an MIC greater than 192 µg/mL.
Turning to `O=C1N[C@H](Cc2ccccc2)C(=O)N[C@@H]1Cc1ccccc1`, the MIC was greater than 192 µg/mL.
The same measure, in the same setting: for `O=C1N[C@H](Cc2ccc(OCc3ccccc3)cc2)C(=O)N[C@H]1Cc1ccccc1` the value was greater than 192 µg/mL.
